Results reported in US20070219141A1, “Plant Materials Extraction Method” (priority 2003, published 2007).

Tests used:
Assay type in all cases: cell-based
Candida albicans = assay: Disk diffusion assay on agar plates; set-up: key: “+” active; “—” not active
From the text: (§1) Microorganisms: Laboratory strains of bacteria and fungus were obtained from Dr. Neil Towers' and Dr. Jovel's lab, The University of British Columbia. Seven species of bacteria and one species of fungus will be used in the screening process. The bacteria strains consisted of Staphylococcus aureus, methicillin resistant Staphylococcus aureus, Bacillus subtilis and Enterococcus faecalis, Escherichia coli, Pseudomonas aeruginosa, and Salmonella typhimurium. The fungal species was Candida albicans.
(§2) Methods: Disk diffusion assay on agar plates inoculated with the organisms being studies. The plates were divided into quadrants or sixths using a black marking pen. In quadrant 1 and 2, negative and positive controls were run (no treatment and gentamicin). Test compounds were run on the remaining available portions.

Enterococcus faecalis = assay: Disk diffusion assay on agar plates; set-up: key: “+” active; “—” not active
From the text: as §1, §2

[1] = tested on: all the bacteria and fungus used in above biological screening; assay: Disk diffusion assay, whole panel; settings: seven bacteria and C. albicans
From the text: as §1, §2

Pseudomonas aeruginosa = assay: Disk diffusion assay on agar plates; set-up: key: “+” active; “—” not active
From the text: as §1, §2

Salmonella typhimurium = assay: Disk diffusion assay on agar plates; set-up: key: “+” active; “—” not active
From the text: as §1, §2

Molecule | Anti-microbial activity C. a (Candida albicans) | Anti-microbial activity E. f. (Enterococcus faecalis) | anti-microbial activity over the panel, in words [1] | Anti-microbial activity P. a (Pseudomonas aeruginosa) | Anti-microbial activity S. t. (Salmonella typhimurium)
Gentamicin | — | + | active against all the tested bacteria but not against C. albicans |  | 
CC(C)c1cccc(=O)c(O)c1 [Hinokitiol standard, 2,4,6-Cycloheptatrien-1-one,2-hydroxy-4-(1-methylethyl)] |  |  | demonstrated activities against all the bacteria and fungus | + | 
CC1(C)C=CC=C(C(=O)O)C=C1 [Thujic acid standard, thujic acid] |  |  | showed activities against some bacteria and fungus | — | +
